Experimental findings from US20140128385A1 (NOVARTIS AG, priority 2011, published 2014) are described below.

Structures can show the parent of a compound that is named as a salt.

For this experiment, the target named is T1, BACE-2 (Homo sapiens, UniProt Q9Y5Z0).
T1 construct: Recombinant BACE-2 (extracellular domain, expressed in baculovirus and purified using standard methods); made in house
T1 sequence (Q9Y5Z0 63-473 limits assumed): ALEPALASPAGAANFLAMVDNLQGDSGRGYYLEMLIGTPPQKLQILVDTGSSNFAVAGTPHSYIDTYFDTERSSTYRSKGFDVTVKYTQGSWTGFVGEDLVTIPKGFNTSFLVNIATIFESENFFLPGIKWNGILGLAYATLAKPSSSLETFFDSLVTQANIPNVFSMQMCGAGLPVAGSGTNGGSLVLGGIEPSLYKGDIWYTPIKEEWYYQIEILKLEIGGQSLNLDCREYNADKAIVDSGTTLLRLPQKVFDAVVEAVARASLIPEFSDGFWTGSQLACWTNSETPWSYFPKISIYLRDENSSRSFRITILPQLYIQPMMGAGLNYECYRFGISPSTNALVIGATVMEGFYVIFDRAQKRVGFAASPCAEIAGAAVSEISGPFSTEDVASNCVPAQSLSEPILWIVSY
Nature of the experiment: assay for inhibition of BACE-2. In kind it is biochemical.
As for `CC(C)N1CC(C)(c2cc(NC(=O)c3ccc(Br)cn3)ccc2F)N=C(N)C1=O` (centres unmarked) [Example 194, 5-Bromo-pyridine-2-carboxylic acid [3-(6-amino-4-isopropyl-2-methyl-5-oxo-2,3,4,5-tetrahydro-pyrazin-2-yl)-4-fluoro-phenyl]-amide hydrochloride], the IC50 stood at 47 nM. Next, `COCCN1CC(C)(c2cc(NC(=O)c3ncc(Cl)cc3Cl)ccc2F)N=C(N)C1=O` (centres unmarked) [Example 195, 3,5-Dichloro-pyridine-2-carboxylic acid {3-[6-amino-4-(2-methoxy-ethyl)-2-methyl-5-oxo-2,3,4,5-tetrahydro-pyrazin-2-yl]-4-fluoro-phenyl}-amide hydrochloride]: 6 nM; `COCCN1CC(C)(c2cc(NC(=O)c3ccc(Br)cn3)ccc2F)N=C(N)C1=O` (centres unmarked) [Example 196, 5-Bromo-pyridine-2-carboxylic acid {3-[6-amino-4-(2-methoxy-ethyl)-2-methyl-5-oxo-2,3,4,5-tetrahydro-pyrazin-2-yl]-4-fluoro-phenyl}-amide hydrochloride]: 17 nM; `Cn1cc(N2CC(C)(c3cc(NC(=O)c4ccc(Br)cn4)ccc3F)N=C(N)C2=O)cn1` (centres unmarked) [Example 197, 5-Bromo-pyridine-2-carboxylic acid {3-[6-amino-2-methyl-4-(1-methyl-1H-pyrazol-4-yl)-5-oxo-2,3,4,5-tetrahydro-pyrazin-2-yl]-4-fluoro-phenyl}-amide hydrochloride]: 18 nM. With `CC1(c2cc(NC(=O)c3ccc(Br)cn3)ccc2F)CN(c2cccnc2)C(=O)C(N)=N1` (centres unmarked) [Example 198, 5-Bromo-pyridine-2-carboxylic acid [3-(6-amino-2-methyl-5-oxo-4-pyridin-3-yl-2,3,4,5-tetrahydro-pyrazin-2-yl)-4-fluoro-phenyl]-amide hydrochloride], the IC50 was determined as 9 nM. For the compound `CCN1CC(C)(c2cc(NC(=O)c3ccc(C#N)cn3)ccc2F)N=C(N)C1=O` (centres unmarked) [Example 199, 5-Cyano-pyridine-2-carboxylic acid [3-(6-amino-4-ethyl-2-methyl-5-oxo-2,3,4,5-tetrahydro-pyrazin-2-yl)-4-fluoro-phenyl]-amide hydrochloride], inhibition was half-maximal at 132 nM (IC50).

`NC1=NC(c2cc(NC(=O)c3ccc(Br)cn3)ccc2F)(C(F)F)CNC1` (centres unmarked) [Example 201, 5-Bromo-pyridine-2-carboxylic acid [3-(6-amino-2-difluoromethyl-2,3,4,5-tetrahydro-pyrazin-2-yl)-4-fluoro-phenyl]-amide] displayed an IC50 of 24 nM. In turn, `N#Cc1ccc(C(=O)Nc2ccc(F)c(C3(C(F)F)CNCC(N)=N3)c2)nc1` (centres unmarked) [Example 202, 5-Cyano-pyridine-2-carboxylic acid [3-(6-amino-2-difluoromethyl-2,3,4,5-tetrahydro-pyrazin-2-yl)-4-fluoro-phenyl]-amide] returned a half-maximal inhibitory concentration (IC50) of 66 nM. Next, `N#Cc1ccc(C(=O)Nc2ccc(F)c(C3(C(F)F)CNC(=O)C(N)=N3)c2)nc1` (centres unmarked) [Example 203, 5-Cyano-pyridine-2-carboxylic acid [3-(6-amino-2-difluoromethyl-5-oxo-2,3,4,5-tetrahydro-pyrazin-2-yl)-4-fluoro-phenyl]-amide]: 7 nM. In turn, `COC(=O)N1CC(N)=NC(c2cc(NC(=O)c3ccc(Br)cn3)ccc2F)(C(F)F)C1` (centres unmarked) [Example 204, 5-Amino-3-{5-[(5-bromo-pyridine-2-carbonyl)-amino]-2-fluoro-phenyl}-3-difluoromethyl-3,6-dihydro-2H-pyrazine-1-carboxylic acid methyl ester] yielded an IC50 of 10 nM.

As for `COC(=O)N1CC(N)=NC(c2cc(NC(=O)c3ccc(C#N)cn3)ccc2F)(C(F)F)C1` (centres unmarked) [Example 205, 5-Amino-3-{5-[(5-cyano-pyridine-2-carbonyl)-amino]-2-fluoro-phenyl}-3-difluoromethyl-3,6-dihydro-2H-pyrazine-1-carboxylic acid methyl ester], the IC50 came out at 104 nM.

On to `CC(=O)N1CC(N)=NC(c2cc(NC(=O)c3ncc(Br)cc3C)ccc2F)(C(F)F)C1` (centres unmarked) [Example 206, 5-Bromo-3-methyl-pyridine-2-carboxylic acid [3-(4-acetyl-6-amino-2-difluoromethyl-2,3,4,5-tetrahydro-pyrazin-2-yl)-4-fluoro-phenyl]-amide], for which the IC50 was found to be 4 nM. Next, `Cc1cc(Br)cnc1C(=O)Nc1ccc(F)c(C2(C(F)F)CN(C(=O)OCC(Cl)Cl)CC(N)=N2)c1` (centres unmarked) [Example 207, 5-Amino-3-{5-[(5-bromo-3-methyl-pyridine-2-carbonyl)-amino]-2-fluoro-phenyl}-3-difluoromethyl-3,6-dihydro-2H-pyrazine-1-carboxylic acid 2,2-dichloro-ethyl ester]: 3 nM. In the case of `COCC(=O)N1CC(N)=NC(c2cc(NC(=O)c3ncc(Br)cc3C)ccc2F)(C(F)F)C1` (centres unmarked) [Example 208, 5-Bromo-3-methyl-pyridine-2-carboxylic acid {3-[6-amino-2-difluoromethyl-4-(2-methoxy-acetyl)-2,3,4,5-tetrahydro-pyrazin-2-yl]-4-fluoro-phenyl}-amide] it was 4 nM; in that of `Cc1cc(Br)cnc1C(=O)Nc1ccc(F)c(C2(C(F)F)CN(C(=O)C3CC3)CC(N)=N2)c1` (centres unmarked) [Example 209, 5-Bromo-3-methyl-pyridine-2-carboxylic acid [3-(6-amino-4-cyclopropanecarbonyl-2-difluoromethyl-2,3,4,5-tetrahydro-pyrazin-2-yl)-4-fluoro-phenyl]-amide], 6 nM; in that of `Cc1cc(Br)cnc1C(=O)Nc1ccc(F)c(C2(C(F)F)CNCC(N)=N2)c1` (centres unmarked) [Example 210, 5-Bromo-3-methyl-pyridine-2-carboxylic acid [3-(6-amino-2-difluoromethyl-2,3,4,5-tetrahydro-pyrazin-2-yl)-4-fluoro-phenyl]-amide], 23 nM.

For the compound `CC(=O)N1CC(N)=NC(c2cc(NC(=O)c3ncc(OC(F)F)cc3C)ccc2F)(C(F)F)C1` (centres unmarked) [Example 211, 5-Difluoromethoxy-3-methyl-pyridine-2-carboxylic acid [3-(4-acetyl-6-amino-2-difluoromethyl-2,3,4,5-tetrahydro-pyrazin-2-yl)-4-fluoro-phenyl]-amide], half-maximal inhibition (IC50) required 89 nM. `NC1=N[C@@](c2cc(NC(=O)c3ncc(=O)[nH]c3N)ccc2F)(C(F)F)CNC1` [Example 214, 3-Amino-5-oxo-4,5-dihydro-pyrazine-2-carboxylic acid [3-((R)-6-amino-2-difluoromethyl-2,3,4,5-tetrahydro-pyrazin-2-yl)-4-fluoro-phenyl]-amide] showed an IC50 of 757 nM. Next, `COCc1cc(Cl)cnc1C(=O)Nc1ccc(F)c([C@]2(C(F)F)COCC(N)=N2)c1` [Example 215, 5-Chloro-3-methoxymethyl-pyridine-2-carboxylic acid [3-((R)-5-amino-3-difluoromethyl-3,6-dihydro-2H-[1,4]oxazin-3-yl)-4-fluoro-phenyl]-amide]: 11 nM. `N#Cc1cnc(C(=O)Nc2ccc(F)c([C@]3(C(F)F)COCC(N)=N3)c2)c(Cl)c1` [Example 216]: the IC50 is 61 nM.

With `[2H]C([2H])([2H])Oc1cnc(C(=O)Nc2ccc(F)c([C@]3(C(F)F)COCC(N)=N3)c2)c(N)n1` [Example 217], half-maximal inhibition (IC50) required 153 nM. The compound `C#CCOc1cnc(C(=O)Nc2ccc(F)c([C@]3(C(F)F)COCC(N)=N3)c2)c(N)n1` [Example 218] showed an IC50 of 125 nM.

Take `NC1=N[C@@](c2cc(NC(=O)c3ccc4c(Cl)c[nH]c4n3)ccc2F)(C(F)F)COC1` [Example 219]: the midpoint of inhibition, the IC50, lay at 117 nM.

For orientation: IC50 means the concentration at which inhibition is half-maximal. Higher therefore signals a need for much substance.
